Experiments:
[1] = Activation of NF-kappaB (unknown origin) relative to control; conditions: Homo sapiens
[2] = Activation of NF-kappaB (unknown origin); parameters: species or system Homo sapiens
Homo sapiens = species on record: Homo sapiens; assay: Potency index, ratio of SRI-22818 EC50 to test compound EC50 for activation of NF-kappaB (unknown origin)

With `O=C(c1ccc(Cl)c(Cl)c1)c1ccn(-c2ccccc2F)c1` as the compound, how does the Emax [1] read?
Its Emax is 8.3%.

And the EC50 ([2]; read-out: EC50)?
The EC50 was 7710 nM.

Which EC50 [2] does the source give for `O=C(c1ccc2c(c1)OCO2)c1c[nH]c2cccc(Br)c12` here?
The EC50 was “Not Active”.

What does the source list for `O=C(/C=C\Nc1ccccc1)c1ccc2c(c1)OCO2`?
Emax [1]: 11%; EC50 ([2]; read-out: EC50): 400 nM

With `Fc1ccccc1-n1ccc(CNc2ccc3c(c2)OCO3)c1` as the compound, how does the Emax [1] read?
Its Emax is 10.4%.

And the EC50 ([2]; read-out: EC50)?
Its EC50 is 15000 nM.

Which Emax [1] does the source give for `O=C(/C=C\Nc1ccccc1C(F)(F)F)c1ccc2c(c1)OCO2` here?
The Emax was 8%.

What about the EC50 ([2]; read-out: EC50) of the same compound?
The EC50 was 3100 nM.

Which Emax [1] does the source give for `O=C(c1ccc2c(c1)OCO2)c1ccn(-c2ccccc2F)c1` here?
Its Emax is 12.5%.

And the EC50 ([2]; read-out: EC50)?
Its EC50 is 3210 nM.

Which results are given for `O=C(c1ccc2c(c1)OCO2)c1c[nH]c2cc(Cl)ccc12`?
Emax [1]: 13.2%; EC50 ([2]; read-out: EC50): 1200 nM

For `O=C(/C=C\Nc1ccccc1C(F)(F)F)c1ccccn1`, which Emax [1] is on record?
Its Emax is 16%.

What about the EC50 ([2]; read-out: EC50) of the same compound?
The EC50 was 1400 nM.

With `O=C(c1ccc2c(c1)OCO2)c1c[nH]c2cc(F)ccc12` as the compound, how does the Emax [1] read?
The Emax was 8.6%.

And the EC50 ([2]; read-out: EC50)?
Its EC50 is 4400 nM.

For `O=C(c1ccc2c(c1)OCO2)c1ccn(-c2ccccc2Br)c1`, which EC50 [2] is on record?
Its EC50 is “Not Active”.

Which EC50 [2] does the source give for `O=C(CCNc1ccccc1Br)c1ccc2c(c1)OCO2` here?
Its EC50 is “Not Active”.

Which results are given for `O=C(c1ccc2c(c1)OCO2)c1ccn(-c2ccc(F)cc2)c1`?
Emax [1]: 13.2%; EC50 ([2]; read-out: EC50): 12900 nM

What does the source list for `O=C(/C=C\Nc1ccccc1Br)c1ccc2c(c1)OCO2`?
Emax [1]: 26%; EC50 ([2]; read-out: EC50): 500 nM

Which results are given for `Cc1cccnc1N/C=C\C(=O)c1ccc2c(c1)OCO2`?
Emax [1]: 22%; EC50 ([2]; read-out: EC50): 300 nM

Which EC50 [2] does the source give for `O=C(/C=C\Nc1ccccc1Cl)c1ccccn1` here?
The EC50 was “Not Active”.

Which EC50 [2] does the source give for `O=C(c1ccc(Cl)c(Cl)c1)c1c[nH]c2cc(Br)ccc12` here?
The EC50 was “Not Active”.

Which Emax [1] does the source give for `O=C(c1ccc2c(c1)OCO2)c1c[nH]c2c(F)cccc12` here?
Its Emax is 18%.

And the EC50 ([2]; read-out: EC50)?
The EC50 was 13400 nM.

Which results are given for `O=C(Nc1ccc2c(c1)OCO2)c1ccn(-c2ccccc2F)c1`?
Emax [1]: 34%; EC50 ([2]; read-out: EC50): 11300 nM

For `O=C(c1ccc2c(c1)OCO2)c1c[nH]c2cnccc12`, which EC50 [2] is on record?
Its EC50 is “Not Active”.

Which Emax [1] does the source give for `O=C(c1ccc2c(c1)OCO2)c1c[nH]c2c(Br)cccc12` here?
The Emax was 18%.

What about the EC50 ([2]; read-out: EC50) of the same compound?
Its EC50 is 21400 nM.

Which Emax [1] does the source give for `O=C(c1ccc2c(c1)OCO2)c1ccn(-c2ccccc2Cl)c1` here?
The Emax was 15.1%.

What about the EC50 ([2]; read-out: EC50) of the same compound?
Its EC50 is 7800 nM.

What does the source list for `O=C(c1ccc(F)c(F)c1)c1ccn(-c2ccccc2F)c1`?
Emax [1]: 13%; EC50 ([2]; read-out: EC50): 5840 nM

With `O=C(/C=C\Nc1ccccc1Cl)c1ccc2c(c1)OCO2` as the compound, how does the Emax [1] read?
Its Emax is 24%.

What about the EC50 ([2]; read-out: EC50) of the same compound?
Its EC50 is 500 nM.

Which Emax [1] does the source give for `O=C(c1ccc2c(c1)OCO2)c1c[nH]c2cc(Br)ccc12` here?
The Emax was 11.2%.

And the EC50 ([2]; read-out: EC50)?
Its EC50 is 1000 nM.

Which results are given for `O=C(/C=C\Nc1ccccc1F)c1ccccn1`?
Emax [1]: 20%; EC50 ([2]; read-out: EC50): 1000 nM

Which results are given for `COc1ccccc1N/C=C\C(=O)c1ccc2c(c1)OCO2`?
Emax [1]: 14%; EC50 ([2]; read-out: EC50): 3900 nM

Which EC50 [2] does the source give for `O=C(c1ccncc1)c1c[nH]c2c(Br)cccc12` here?
Its EC50 is “Not Active”.

For `COc1cccnc1N/C=C\C(=O)c1ccccn1`, which Emax [1] is on record?
Its Emax is 24%.

And the EC50 ([2]; read-out: EC50)?
The EC50 was 300 nM.

For `O=C(c1ccccc1)c1c[nH]c2c(Br)cccc12`, which EC50 [2] is on record?
Its EC50 is “Not Active”.

For `O=C(c1ccc(F)c(F)c1)c1c[nH]c2cc(Br)ccc12`, which EC50 [2] is on record?
Its EC50 is “Not Active”.

What does the source list for `Cc1ccccc1N/C=C\C(=O)c1ccc2c(c1)OCO2`?
Emax [1]: 24%; EC50 ([2]; read-out: EC50): 800 nM

Which results are given for `COc1ccccc1N/C=C\C(=O)c1ccccn1`?
Emax [1]: 8%; EC50 ([2]; read-out: EC50): 200 nM

Which EC50 [2] does the source give for `Cc1ccc(C(=O)c2c[nH]c3cc(Br)ccc23)cc1C` here?
Its EC50 is “Not Active”.

Which Emax [1] does the source give for `O=C(/C=C\Nc1ncccc1C(F)(F)F)c1ccc2c(c1)OCO2` here?
Its Emax is 23%.

What about the EC50 ([2]; read-out: EC50) of the same compound?
Its EC50 is 800 nM.

What does the source list for `Cc1ccccc1N/C=C\C(=O)c1ccccn1`?
Emax [1]: 17%; EC50 ([2]; read-out: EC50): 300 nM

For `O=C(/C=C\Nc1ccccc1Br)c1ccccn1`, which EC50 [2] is on record?
The EC50 was “Not Active”.

With `O=C(c1ccc2c(c1)OCO2)c1ccn(-c2cccc(F)c2)c1` as the compound, how does the Emax [1] read?
Its Emax is 13.8%.

And the EC50 ([2]; read-out: EC50)?
Its EC50 is 17700 nM.

For `O=C(c1ccc2c(c1)OCO2)c1ccccc1Nc1ccccc1Br`, which EC50 [2] is on record?
Its EC50 is “Not Active”.

With `O=C(c1ccccn1)c1c[nH]c2c(Br)cccc12` as the compound, how does the EC50 [2] read?
The EC50 was “Not Active”.

For `O=C(/C=C\Nc1ccccc1F)c1ccc2c(c1)OCO2`, which Emax [1] is on record?
The Emax was 22%.

What about the EC50 ([2]; read-out: EC50) of the same compound?
The EC50 was 320 nM.

What does the source list for `Cc1cccc2c(C(=O)c3ccc4c(c3)OCO4)c[nH]c12`?
Emax [1]: 23%; EC50 ([2]; read-out: EC50): 43200 nM

With `Cn1cc(C(=O)c2ccc3c(c2)OCO3)c2cccc(Br)c21` as the compound, how does the EC50 [2] read?
Its EC50 is “Not Active”.

Which Emax [1] does the source give for `Cc1cccnc1N/C=C\C(=O)c1ccccn1` here?
The Emax was 22%.

What about the EC50 ([2]; read-out: EC50) of the same compound?
Its EC50 is 900 nM.

With `COc1ccc(C(=O)c2c[nH]c3cc(Br)ccc23)cc1OC` as the compound, how does the EC50 [2] read?
Its EC50 is “Not Active”.

Which Emax [1] does the source give for `O=C(/C=C\Nc1ncccc1C(F)(F)F)c1ccccn1` here?
The Emax was 16%.

And the EC50 ([2]; read-out: EC50)?
Its EC50 is 700 nM.

With `O=C(/C=C\Nc1ncccc1F)c1ccc2c(c1)OCO2` as the compound, how does the Emax [1] read?
The Emax was 17%.

What about the EC50 ([2]; read-out: EC50) of the same compound?
Its EC50 is 100 nM.

What about the Ratio EC50 (Homo sapiens) of the same compound?
The Ratio EC50 was 5.

Which results are given for `COc1cccnc1N/C=C\C(=O)c1ccc2c(c1)OCO2`?
Emax [1]: 12%; EC50 ([2]; read-out: EC50): 3300 nM

Which Emax [1] does the source give for `O=C(/C=C\Nc1ncccc1F)c1ccccn1` here?
Its Emax is 14%.

What about the EC50 ([2]; read-out: EC50) of the same compound?
Its EC50 is 900 nM.

What does the source list for `Cc1ccc(C(=O)c2ccn(-c3ccccc3F)c2)cc1C`?
Emax [1]: 19.9%; EC50 ([2]; read-out: EC50): 11900 nM

What does the source list for `Cc1ccccc1-n1ccc(C(=O)c2ccc3c(c2)OCO3)c1`?
Emax [1]: 10%; EC50 ([2]; read-out: EC50): 22400 nM

With `O=C(c1ccc2c(c1)OCO2)c1c[nH]c2ccc(Br)cc12` as the compound, how does the Emax [1] read?
The Emax was 3%.

What about the EC50 ([2]; read-out: EC50) of the same compound?
Its EC50 is 4500 nM.
